Where “and” joins values, the source holds several entries; their conditions need not be identical. Equal entries are not always repeated. Where two headings read alike, the source gives them in different places.
Tests used:
U937 = test: In vitro growth inhibition (GI50), cell growth assay; assay type: cell-based, human; conditions: U937 tumor cell line, 3 days
Method: After 3 days of incubation, cell growth was determined.
To determine the Growth Inhibition in the suspension cell lines, cell numbers were directly counted instead of using the SRB assay which determines the total cell protein. One day prior to the drug treatment, 40,000 cells per well were seeded into 24-well plates in a volume of 0.5 mL. Stock solutions were diluted with complete medium to twice the desired final concentrations, and then 0.5 mL aliquots of each dilution were added to the designated wells. After 3 days incubation, cell growth was determined by counting cell number using a coulter counter (Z-M, coulter). Cell counts were-also taken at time 0 and subtracted from the test results to give net growth.

A549 = test: In vitro growth inhibition (GI50), SRB assay; assay type: cell-based, human; conditions: A549 tumor cell line, 3 days
Excerpt: (§1) The following cell lines were selected from the cell bank for screening and GI50 studies: MCF-7: human breast tumor, MCF-7/ADR: MCF-7 adriamycin resistant subline, HT-29: human colon carcinoma, A-549: human non-small cell lung cancer, NIH-3T3: mouse Swiss embryo fibroblast and WI-38: human lung fibroblast, SKMEL-28: human melanoma, Lewis Lung: mouse lung carcinoma, DU-145: prostate carcinoma, B16F10: mouse melanoma, L1210: murine lymphocytic leukemia, P-388: murine leukemia, U-937: human histolytic lymphoma. Except HT-29, WI-38, NIH-3T3 and Lewis Lung which were obtained from the American Type Culture Collection (Rockville, Md.) all the other cell lines were obtained from National Cancer Institute—Frederick Research Facility (Frederick, Md.). All the cell lines were grown in RPMI-1640 medium containing 10% fetal bovine serum (FBS) except WI-38 and DU-145 which were grown in EMEM+10% FBS at 37° C., 5% CO2 and 100% humidity and NIH-3T3, Lewis Lung, B16F10 and L1210 which were grown in DMEM containing 10% FBS (10% HS for L1210). All the adherent cell lines were detached from the culture flasks by addition of 2-3 ml of 0.05% trypsin-EDTA. Thereafter, trypsin was inactivated by addition of 10 mL of 10% serum-containing RPMI-1640 medium. Cells were separated into a single-cell suspension by gentle pipetting action. Depending on the cell type, […] to 10,000 cells were plated onto 96-well plates a day prior to the drug treatment, in a volume of 100 μl per well.
(§2) The test compounds were made in-house and the compounds were dissolved PBS or saline at a stock concentration of approximately 20 mM, which is 400 times the desired final maximum test concentration. The stock solutions were then diluted with complete medium to twice the desired final concentration. 100 μl aliquots of each dilution was then added to the designated wells. After 3 days of incubation, cell growth was determined.
(§3) The SRB assay was performed as described by Monks, A., Scudiero, D., Skehan, P., Shoemaker, R., Paull, K., Vistica, D., Hose, C., Langley, J., Cronise, P., and Vaigro-Wolff, A. Feasibility of a high-flux anticancer drug screen using a diverse panel of cultured human tumo-r cell lines. J Natl Cancer Inst, 83: 757-766, 1991 with minor modifications. Following drug treatment, cells were fixed with 50 μl of cold 50% (wt/vol) trichloroacetic acid (TCA) for 60 minutes at 4° C. The supernatant was discarded, and the plates were washed six times with deionized water and then air dried. The precipitate was stained with 100 μl SRB solution (0.4% wt/vol in 1% acetic acid) for 10 minutes at room temperature, and free SRB was removed by washing three times with 1% acetic acid, and the plates were then air dried. Bound SRB was solubilized with Tris buffer (10 mM), and the ODs were read using an automated plate reader (Bio-Rad, Model 3550-UV) at 490 nm. Background values were subtracted from the test data, and the data was calculated as a % of control. […] Percentage growth was calculated as described by, Peters, A. C., Ahmad, I., Janoff, A. S., Pushkareva, M. Y., and Mayhew, E. Growth Inhibitory effects of liposome-associated 1-o-octadecyl-2-o-methyl-sn-glycero-3-phosphocholine. Lipids, 32:1045-1054, 1997. The raw optical density data Was imported into an Excel spreadsheet to determine dose responses. […] By varying drug concentration,-dose response curves were generated and the GI-50 values were calculated. The GI50 values for each experiment were calculated using data obtained from three duplicate wells on two separate plates.
(§4) For growth inhibitory evaluation, we used five human tumor cell lines (U937; HT29; A549; MCF7; MCF7/ADR) and two normal fibroblast cell lines (NIH-3T3, murine; WI-38, human).

HT29 = test: In vitro growth inhibition (GI50), SRB assay; assay type: cell-based, human; conditions: HT29 tumor cell line, 3 days
Excerpt: as §1, §2, §3, §4

MCF7/ADR = test: In vitro growth inhibition (GI50), SRB assay; assay type: cell-based, human; conditions: MCF7/ADR tumor cell line, 3 days
Excerpt: as §1, §2, §3, §4

MCF7 = test: In vitro growth inhibition (GI50), SRB assay; assay type: cell-based, human; conditions: for GI50: MCF7 tumor cell line, 3 days; for effect on MCF7 growth compared to ET-18-OCH3 (in words): separate in-house study, Table 3
Excerpt: as §1, §2, §3, §4

WI38 = conditions: for GI50: WI38 normal human fibroblast cell line, 3 days
Excerpt: as §1, §2, §3, §4

K-562 = test: NCI growth inhibition screen, leukemia panel; assay type: cell-based, human; set-up: key to Performance as compared to ET-18-O—CH3: = means equivalent activity; + means that it appears to be significantly better (i.e., by ˜2x); < means it appears to be less active than ET18OCH3 (˜2x); a combination like =/+ or </+ means that activity is dependent upon the isomer; a combination like =/+ or </+ means that activity is dependent upon the isomer; conditions: for Performance as compared to ET-18-O—CH3: K-562, Leukemia, from GI50s
Method: Candidates deemed suitable for in vivo testing were then synthesized in large scale quantities and some of this material was sent to the NCI's Developmental Therapeutics Program for a battery of growth inhibitory studies against various human tumor cell lines (60 cell lines, 9 different panels). The remainder of the material was used to assess in vivo efficacy using murine tumor models. Additionally, studies were conducted on the lead candidates to discern mechanism of action with particular emphasis on these agents apoptotic ability as measured by caspase 3 activity. The details (materials and methods) for these various assays are described further in the following discussion.
Ten compounds were also sent to NCI's Drug Discovery Program for screening against numerous human tumor cell lines (9 panels total: renal ovarian, colon, CNS, non-small cell lung, leukemia, breast, melanoma, and prostate). The data are shown in FIGS. 2a-i which also include data regarding D- and L-ET-18-OCH3 (listed as L-EL and D-EL in the figures). Upon examining the data, one is struck by how 1R and 1a′S standout in comparison to the other compounds, especially for the renal, ovarian, colon, and CNS panels.

Row | SMILES | GI50 (U937) | GI50 (A549) | GI50 (HT29) | GI50 (MCF7/ADR) | GI50 (MCF7) | effect on MCF7 growth compared to ET-18-OCH3 (in words) (MCF7) | cytotoxicity to normal human fibroblast as compared to ET-18-OCH3 (in words) (WI38) | GI50 (WI38) | Performance as compared to ET-18-O—CH3 (K-562) | cytotoxicity to normal human fibroblast as compared to ET-18-OCH3 (in words) (WI38; WI-38) | activity (in words) (K-562; K-562 cell line, NCI screen)
1 | CCCCCCCCCCCCCCCCCCOC[C@@H](COP(=O)([O-])OCC[N+](C)(C)C)OS(C)(=O)=O [1a′S] | 1.4 µM | 9.3 µM | 2.6 µM | 39 µM | 31.3 µM | appeared worse | less cytotoxic | 16.3 µM | =/+ |  | 
2 | CCCCCCCCCCCCCCCCCCOCC(COP(=O)([O-])OCC[N+](C)(C)C)OS(C)(=O)=O (stereo not shown) [Compound 1aR] | 1.4 µM | 6 µM and 6.6 µM | 2.1 µM and 2.3 µM | > 40 µM | 24.3 µM and 26.4 µM | appeared worse |  | 40.9 µM | =/+ | less cytotoxic | 
3 | CCCCCCCCCCCCCCCCCCOCC(COP(=O)([O-])OCC[N+](C)(C)C)OC [D-ET18OCH3, 1-O-octadecyl-2-O-methyl-glycerophosphocholine, reference compound] | 1.4 µM | 8 µM | 5.1 µM | 25.1 µM | 14.6 µM |  |  | 10 to 13.5 µM |  |  | extremely poor activity
